Assays:
[1] = Tolerability on use in a wide range of dosages; assay type: in vivo; conditions: used in a wide range of dosages
[2] = tested on: primary generalized amyloidosis; assay: Example 10: patient with primary generalized amyloidosis treated with rhodamine 6G; assay type: in vivo, human; conditions: Patient T, 67
Excerpt: Patient T. Diagnosis: Ischemic heart disease: Atherosclerosis, cardiosclerosis, atrial fibrillation. Amyloidosis? On account of deterioration in the patient's condition (increased frequency of dyspnea) the patient was hospitalised. On admission the patient's overall condition was fairly serious. Skin and visible mucous membranes normal colour, moderately cyanosed lips. Heart sounds—muffled, arrhythmia—atrial fibrillation with frequency of ventricular contractions 110 beats/min (pulse deficiency 12), blood pressure 100/60 mm Hg. In left lung, dull percussion sound below the middle of the shoulder blade; no breathing detected above this region. Individual moist rales heard to the right in the projection of the lower lobe. Diseased liver, lower edge extending 4 cm below the level of the costal margin. Edema of the legs as far as middle third of femur and anasarca were diagnosed.
Low voltage waves recorded on ECG, taxistological shape of atrial fibrillation, QS in leads V1-V4. […] Disturbed diastolic relaxation of myocardium of left ventricle was noted. […] In the biochemical blood analysis the level of total protein was reduced (down to 50 g/l), while the levels of urea (to 9.66 mmol/l) and creatinine (to […]) were both raised. […] Ultrasound investigation of organs of the abdominal cavity: enlarged liver (right lobe—16.9 cm), echogenicity reduced, and irregular structure; portal vein−15 mm. Gall bladder: 52×22 mm, wall up to 4 mm, unobstructed lumen. Pancreas: uniform, echogenicity raised, focalized diffuse changes. […] Calyculate-pelvic system of both kidneys not enlarged. Fogging of the lung pattern and diffuse changes were observed on an anterioposterior chest X-ray. A needle liver biopsy was performed in order to exclude amyloidosis. Signs of primary amyloidosis were detected. […] 5% suppositories in the rectum at night. Treatment according to this regimen was continued for 2 months. […] Intravenous administration twice a week. The course of treatment lasted 2 months. […] The liver and kidneys were normal size on an ultrasound scan.

[3] = tested on: amyloidosis; assay: Example 1: patient with amyloidosis treated with rhodamine 6G; assay type: in vivo, human; conditions: Patient V
Experimental: Patient V. Diagnosis: amyloidosis. The patient felt lethargic and “under the weather”. […] The first course of treatment with the preparation consisted of 15 drops of a 1% solution in a glass of water three times a day by mouth, at the evening meal in addition a microenema of 10 drops of a 1% solution in 30 ml of water, and at night a 1% suppository containing the preparation. […] By the third week after the start of treatment the patient's condition had improved. In the words of relatives, the patient was “feeling better”. […] Blood analyses against the treatment background were normal.

For “9-(2-ethoxycarbonyl)phenyl)-3,6-bis(ethylamino)2,7-dimethylxanthyl chloride [rhodamine 6G]”, the “allergic reactions or other side effects” value [1] was “does not produce any allergic reactions or other side effects”, the “condition of the patient” value ([2]; 5 g in 250 ml water three times a day, 5% suppositories, 2 months) was “gradually improved” and the “size of the heart, echocardiogram” value ([2]; after oral/rectal 2 months and 2 g i.v. twice a week 2 months) was “reduced”. For the same substance, the “blood and urine analyses” value ([2]; after treatment) was “in the normal range”, the “dilation of the left and right atria, echocardiogram” value ([2]; after treatment) was “significantly reduced” and the “fibrillation on the EKG” value ([2]; after treatment) was “no fibrillation”. The “liver and kidneys, ultrasound scan” value ([2]; after treatment) was “normal size”, the “patient's complaints” value ([2]; after treatment) was “no complaints” and the “voltage waves on the EKG” value ([2]; after treatment) was “in the normal range”. The “blood analyses against the treatment background” value [3] was “normal”, the “patient's condition” value ([3]; 73, first week, 1% solution oral, microenema, 1% suppository) was “basically no change” and the “patient's condition” value ([3]; one year after treatment) was “significantly improved”. The “patient's condition” value ([3]; third week after start of treatment) was “improved” and the “amyloid foci in the brain, CT scan” value ([3]; three months after start of treatment) was “reduction of amyloid foci in the brain”.
